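Protocol summary: plate cells (96-well), add compound at 5 concentrations, incubate 48 h, interpolate endpoints linearly. GI50 is the concentration that inhibits growth by half. TGI: total growth inhibition.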
Tests used:
Assay in all cases: growth of human tumour cells (NCI), 48 h
[1] = test system: EKVX NSCLC
[2] = test system: HCT-15 colon
[3] = test system: HOP-92 NSCLC
[4] = test system: MALME-3M melanoma
[5] = test system: MOLT-4 leukemia
[6] = test system: NCI-H522 lung
[7] = test system: PC-3 prostate
[8] = test system: SF-268 CNS
[9] = test system: SF-295 CNS
[10] = test system: SK-MEL-5 melanoma

Row | SMILES | GI50 [1] [µM] | TGI [1] [µM] | GI50 [2] [µM] | TGI [2] [µM] | GI50 [3] [µM] | TGI [3] [µM] | GI50 [4] [µM] | TGI [4] [µM] | GI50 [5] [µM] | TGI [5] [µM] | GI50 [6] [µM] | TGI [6] [µM] | GI50 [7] [µM] | TGI [7] [µM] | GI50 [8] [µM] | TGI [8] [µM] | GI50 [9] [µM] | TGI [9] [µM] | GI50 [10] [µM] | TGI [10] [µM]
1 | CC(C)(/C=C(\C#N)C(=O)N1CCC[C@@H](n2nc(-c3ccc(Oc4ccccc4)cc3F)c3c(N)ncnc32)C1)N1CCN(C2COC2)CC1 | 6.03 | 19.2 | 6.11 | 21 | 2.8 | 11.1 | 6.07 | 19.5 | 2.94 | 13.7 | 2.8 | 17.7 | 10.6 | 27.6 | 5.37 | 21.8 | 6.39 | 19.6 | 3.96 | 13.9
2 | Clc1cc2c(c(CSc3nc4ccccc4n4cccc34)c1)OCOC2 | 29.6 | > 100 | 2.7 | > 100 | 5.36 | 35.5 | 29.6 | > 100 | > 100 | > 100 | 23.4 | > 100 | > 100 | > 100 | 31.3 | > 100 | 11.7 | 39.9 | > 100 | > 100
3 | NNC(=O)CNc1cccc(Br)c1 |  | > 100 |  | > 100 |  | > 100 |  | > 100 |  |  |  | > 100 |  | > 100 |  | > 100 |  | > 100 |  | > 100
4 | O=C(Cc1ccc(F)c(Cl)c1)Nc1cc(C2(C(F)(F)F)CC2)nn1CC1CCCCC1 | 2.55 | 12.6 | 3.87 | > 15 | 2.69 | 10.7 | 2.7 | 8.06 | 3.37 | 9.57 | 2.93 | 9.67 | 4.68 | > 15 | 3.95 | > 15 | 3.62 | > 15 | 2.61 | 4.88
5 | CN1CCN(c2ccc(Nc3cc(-c4cccc(-n5ccc6cc(C7CC7)cc(F)c6c5=O)c4CO)cn(C)c3=O)nc2)CC1 | 2.62 | 9.11 | 5.11 | 26.1 | 1.89 | 8.42 | 2.25 | 4.79 | 3.73 | 19.1 | 4.33 | 21 | 8.93 | 25.2 | 5.58 | 20.9 | 10.5 | 24.2 | 11.9 | 31.1
6 | O=C(c1ccco1)c1c(C(F)(F)F)nc2ccc(Cl)cc2[n+]1[O-] | 56.8 | > 100 | 61 | > 100 | 44 | > 100 | > 100 | > 100 | > 100 | > 100 | 83.1 | > 100 | > 100 | > 100 | > 100 | > 100 | > 100 | > 100 | 17.5 | 31.6
7 | CC(=O)ON1CCCC(P(=O)(OCCSC(=O)C(C)(C)C)OCCSC(=O)C(C)(C)C)C1=O (stereo unspecified) | 2.1 | 49.6 | 0.973 | 76.1 | 0.87 | 31.2 | 0.537 | 9.05 | 0.854 | 11.5 | 0.659 | 20.9 | 3.51 | > 100 | 2.29 | 60.9 | 12.7 | > 100 | 1.21 | 4.15
8 | C/C(N=NC(=S)N1CC2CCC(CC2)C1)=C1\C=CC=CN1O |  | > 65.9 |  | > 100 |  | 54.5 |  | > 82.4 |  | 6.46 |  | 80.3 |  | 45.4 |  | > 100 |  | > 71.5 |  | 41.1
9 | Nc1ncn([C@@H]2O[C@H](CO)[C@@H](O)[C@H]2O)c(=O)n1 | 8.49 | > 100 | 1.6 | 21.1 | 3.06 | 44.5 | 3.65 | 25.3 | 3.41 | 32.1 | 1.29 | 5.84 | 2.17 | > 100 | 2.14 | 34.7 | 2.28 | 58.7 | 2.15 | 7.04
10 | N=c1c2c(-c3ccccc3)c(-c3ccccc3)n(Cc3ccccc3)c2ncn1C1CCC(O)CC1 (stereo unspecified) |  |  | 0.27 | 14.7 | 0.24 | 4.33 | 0.389 | 1.68 | 0.075 | 4.83 | 0.576 | 5.61 | 0.466 | 5.08 | 0.118 | 15 | 0.0836 | 1.45 | 0.511 | 1.85
11 | CN1C(=O)c2ccccc2NC(=O)C12O[C@@H]2c1ccccc1 (stereo partly specified) |  | > 100 |  |  |  | > 100 |  | > 100 |  | > 100 |  | > 100 |  | > 100 |  | > 100 |  | > 100 |  | > 100
